Reference: article PMC9873307, “Methylone, a rapid acting entactogen with robust anxiolytic and antidepressant-like activity” (Frontiers in Psychiatry, 2023)

How the values were obtained:
[1] = test system: other 5-HT, NE, or DA receptors; parameters: method as in PMID 31063768; conditions: cited from earlier work
healthy volunteers = conditions: cited from earlier work
serotonin uptake = conditions: cited from earlier work
male Sprague Dawley rats [2] = test: Open field test (OFT): locomotor activity and time in center; format: in vivo, rat
Protocol: (§1) Male Sprague Dawley rats (Charles River Laboratories) weighing 180–200 g on arrival, were used for all behavioral studies, which took place at Melior Discovery (Exton, PA, USA). Rats acclimated to their home cages for at least 1 week before testing, were maintained in a controlled environment on a 12 h light/dark cycle, with no more than 2 rats per cage. Animals received ad libitum access to standard rodent chow and water and were assigned randomly to treatment groups. All animal use and procedures were in accordance with established protocols approved by the Melior IACUC committee, Melior Standard Operation Procedures (SOP), and Transcend Therapeutics. Distinct cohorts of animals were used for each experiment/Figure presented in this manuscript.
(§2) Methylone HCl (0.5–30 mg/kg; Cayman Chemical) or Fluoxetine HCl (10 mg/kg; Sigma-Aldrich) were formulated in sterile 0.9% saline vehicle before IP administration. Control animals received saline vehicle. Methylone or saline was administered 30 min prior to FST or OFT testing sessions. Fluoxetine or saline were administered 23.5, 5, and 1 h prior to testing, consistent with previous studies ([19]).
All studies were performed by an experimenter blind to treatment group and according to standard protocols at Melior Discovery (Exton, PA, USA). The OFT was used to assess both locomotor activity and anxiety-like behavior. The OFT was run in a standard rat OFA chamber (17 ^^′′ × 17 ^^′′ × 12 ^^′′ , Med Associates). After habituation to the testing room and drug injection, rats were assessed for 30 min in the OFT using an automated activity monitoring system (MedAssociates). Locomotor activity was measured by recording the total ambulatory distance traveled (cm), reported in 5-min bins for the duration of the 30 min testing period. The center of the open field was defined as a 12 ^^′′ square, a predefined center setting on the MedAssociates analysis software. Time spent in the center of the open field, an anxiolytic measure, was also recorded for the 30 min testing period.

mice = test system: mice; parameters: method as in PMID 23603357; conditions: 3–4 doses of 25 mg/kg over a 2-day period, 3 days after dosing; cited from earlier work
male Sprague Dawley rats [3] = test: Forced swim test (FST); format: in vivo, rat; conditions: for percent time spent immobile: 30 min before 5-min test
Protocol: as §1, §2
All studies were performed and scored by an experimenter blind to treatment group according to standard protocols at Melior Discovery (Exton, PA, USA) and based on published “modified FST” procedures ([20]). Briefly, rats were placed in a circular plexiglass container (29.2 cm diameter, 49.5 cm height) filled with water to a depth of 30 cm so rats could not support themselves by touching the bottom of the tank. Water was maintained at 22–25°C and was changed for every animal. Day 1 (Training) consisted of a 15 min acclimation trial, and Day 2 (Testing, 24 h later) consisted of the 5 min test. A time sampling procedure was employed where animals were observed every 5 s for the duration of the test session (60 counts or 5 min) and scored for immobility (defined as the failure to struggle), swimming (defined as a circular movement around the tank), or climbing (defined as an upward escape behavior). Data are expressed as the percent time spent immobile, swimming, or climbing for the 5-min testing session (e.g., the number of immobility counts divided by 60). Therefore, to extrapolate these values to time spent immobile in minutes, one can multiply the percent time immobile by 5 min.

rodents = test system: rodents; parameters: method as in PMID 23839026, PMID 28882561, PMID 22509960, PMID 22922498; conditions: cited from earlier work
[4] = binge-dosing regimen; cited from earlier work
PTSD patients = test system: PTSD patients; parameters: method as in earlier work; conditions: retrospective clinical case series; cited from earlier work

**Q.** For `CNC(C)C(=O)c1ccc2c(c1)OCO2` (stereo not drawn) [methylone, 3,4-methylenedioxy-N-methylcathinone], which “affinity for other 5-HT, NE, or DA receptors” value [1] is on record?
**A.** weak, if any, affinity

**Q.** What about the “tolerability in two Phase 1 studies” value (healthy volunteers; healthy volunteers) of the same compound?
**A.** well-tolerated

**Q.** What about the “tolerability in phase 1 clinical study” value (healthy volunteers; human doses approximately 100–150 mg) of the same compound?
**A.** well tolerated, with no severe adverse events reported

**Q.** What about the “tolerability in clinical studies” value (healthy volunteers; human) of the same compound?
**A.** well tolerated

**Q.** And the “lower potency for inhibition of serotonin uptake vs MDMA” value (serotonin uptake; compared with MDMA)?
**A.** 3–4 ×

**Q.** What about the “less potent inhibitor of serotonin uptake than MDMA” value (serotonin uptake; in vitro, compared with MDMA) of the same compound?
**A.** 3–4 fold

**Q.** What about the IC50 (serotonin uptake; in vitro, read-out: IC50 for inhibition of serotonin uptake) of the same compound?
**A.** 5.75 µM

**Q.** What about the “distance traveled, first 5 min” value (male Sprague Dawley rats [2]; methylone 0.5–10 mg/kg IP, 30 min before, Figure 4C) of the same compound?
**A.** did not affect locomotor activity

**Q.** And the “distance traveled, first 5 min” value (male Sprague Dawley rats [2]; methylone 0.5–30 mg/kg, retest 24 h post-dose, all groups, Figure 4D)?
**A.** locomotor activity returned to baseline

**Q.** And the “time spent in the center” value (male Sprague Dawley rats [2]; methylone 5–30 mg/kg, 30 min after dosing, 30 min test, Figure 5A)?
**A.** significantly increased time spent in the center

**Q.** What about the “distance traveled, first 5 min” value (male Sprague Dawley rats [2]; methylone 15–30 mg/kg IP, 30 min before, Figure 4C) of the same compound?
**A.** significantly increased distance traveled

**Q.** And the “distance traveled over 30-min session, 5-min bins” value (male Sprague Dawley rats [2]; methylone 15–30 mg/kg IP, Figure 4F)?
**A.** increased distance traveled for the duration of the testing session

**Q.** What about the “immobility in the FST” value (mice) of the same compound?
**A.** increased immobility

**Q.** What about the “reduced immobility relative to Vehicle controls” value (male Sprague Dawley rats [3]; after a single dose of methylone) of the same compound?
**A.** 78–98%

**Q.** What about the “duration of antidepressant-like effect” value (male Sprague Dawley rats [3]; after a single dose of methylone 15 mg/kg IP) of the same compound?
**A.** at least 72 h

**Q.** What about the “percent time spent immobile” value (male Sprague Dawley rats [3]; methylone 5 mg/kg IP, Vehicle 63.9 ± 2.7%) of the same compound?
**A.** 31.9 ± 4.7%

**Q.** What about the “climbing vs vehicle on retest” value (male Sprague Dawley rats [3]; methylone 15 mg/kg IP once, 30 min, 24, 72 h, Figure 3D) of the same compound?
**A.** small but significant effect of methylone on climbing was observed at 30 min only

**Q.** And the “swimming vs vehicle on retest” value (male Sprague Dawley rats [3]; methylone 15 mg/kg IP once, 30 min, 24, 72 h, Figure 3F)?
**A.** significantly increasing swimming at all three time points tested

**Q.** What about the “immobility vs vehicle on retest” value (male Sprague Dawley rats [3]; methylone 15 mg/kg IP once, tested 30 min, 24 and 72 h, Figure 3B) of the same compound?
**A.** reducing immobility significantly at all-time points

**Q.** And the “climbing behavior vs controls” value (male Sprague Dawley rats [3]; methylone 0.5–30 mg/kg IP dose response, 30 min before, Figure 1D)?
**A.** increased only by low to mid doses of methylone (5–10 mg/kg)

**Q.** What about the “percent time spent immobile” value (male Sprague Dawley rats [3]; methylone 10–15 mg/kg IP, Vehicle 63.9 ± 2.7%) of the same compound?
**A.** 4.2 ± 1.3%

**Q.** What about the “immobility at highest doses” value (male Sprague Dawley rats [3]; methylone 20–30 mg/kg, not statistically significant) of the same compound?
**A.** trend toward less reduction in immobility

**Q.** And the “climbing compared to vehicle” value (male Sprague Dawley rats [3]; methylone alone 5 mg/kg IP 30 min before, Figure 6C)?
**A.** significantly increased climbing

**Q.** And the “% time immobile” value (male Sprague Dawley rats [3]; methylone alone, 15 mg/kg, Figure 1B, Vehicle 63.9 ± 2.7%)?
**A.** 4.2 ± 1.8%

**Q.** And the “dose of first significant effect on immobility” value (male Sprague Dawley rats [3]; methylone dose response)?
**A.** 5 mg/kg

**Q.** And the “dose of maximal effect on immobility” value (male Sprague Dawley rats [3]; methylone dose response)?
**A.** 10 mg/kg

**Q.** What about the “swimming behavior vs controls” value (male Sprague Dawley rats [3]; methylone mid to high doses, 30 min before, Figure 1F) of the same compound?
**A.** significantly increased

**Q.** What about the “change in immobility vs vehicle control” value (male Sprague Dawley rats [3]; methylone single low dose 5 mg/kg IP, 30 min before) of the same compound?
**A.** ~50%

**Q.** And the onset of effect (male Sprague Dawley rats [3]; single dose of methylone)?
**A.** ≤ 30 min

**Q.** And the “reduction of immobility vs. controls” value (male Sprague Dawley rats [3]; single dose of methylone (5–30 mg/kg) 30 min prior to testing)?
**A.** ~95%

**Q.** And the locomotor activity (rodents)?
**A.** increase locomotor activity

**Q.** What about the effect on anxiety [4] of the same compound?
**A.** anxiogenic effects

**Q.** What about the “effect on symptoms of PTSD” value (PTSD patients) of the same compound?
**A.** alleviates symptoms of PTSD
